# Key:
# RPMI-8226 cells = details: suboptimal combinations with etoposide or melphalan
# Protocol: Current anti-myeloma regimens incorporate multiple drugs with different mechanisms of action. RPMI-8226 cells were treated with 2-OMeA1 in combination with standard chemotherapeutic agents used in myeloma treatment: etoposide, melphalan, or daunorubicin (Sonneveld and Segeren, Eur. J. Cancer 39:9-18, 2003).
# [1] = test system: TABX1A cells (under-expressing Bcl-xL); test: Cell viability by trypan blue dye exclusion; details: 2 μg/ml, without fructose, six hours
# Text: Briefly, a DNA fragment encoding the full-length mouse BCl-xL cDNA was isolated from the plasmid PBS.BCL-xL (Tzung et al., Am. J. Path. 150:1985-1995, 1997, incorporated herein by reference in its entirety) by digestion with the restriction endonuclease EcoRI. This EcoRI fragment was cloned into the EcoRI site of the mammalian expression vector pSFFV (Fuhlbrigge et al., Proc. Nat. Acad. Sci. USA 85:5649-5653, 1988) in both sense and antisense orientations, to form expression plasmids pSFFV.Bcl-xL(sense) or pSFFV.Bcl-xL(antisense), respectively. The tumorigenic murine hepatocyte cell line TAMH was transfected by lipofection (Lipofectamine, Life Technologies, Rockville, Md., according to the manufacturer's recommendations) with the plasmids pSFFV.neo (the control), pSFFV.Bcl-xL(sense) or pSFFV.Bcl-xL(antisense). […] Transfectants were selected for the acquisition of neomycin resistance by growing cells in the presence of 750 μg/ml of G418. Bulk transfectants were cloned by limiting dilution and individual clones were screened by immunoblot analysis to determine the level of BCl-xL protein expression as described below.
# Selected transfectants were then tested for whole cell sensitivity to several apoptotic agents. Transfected cells were cultured to reach approximately 80% confluency prior to plating an equal number of cells from selected clones on 12-well tissue culture plates. […] Cell viability was determined by trypan blue dye exclusion. The percentage of viable cells was calculated by the number of viable cells (treated with a particular apoptogenic agent) divided by the number in the control group (untreated).
# TABX2S cells and TABX1A cells were also examined for the effects of various mitochondrial inhibitors. […] At various time points after drug treatment, cells were trypsinized, and cell viability was determined by trypan blue dye exclusion. The number of viable cells were counted and normalized to control group (i.e., % control=number of viable cells (treated group)/number of viable cells (control group)×100).
# [2] = test system: TAMH cells that over-express Bcl-2; test: Sensitivity of Bcl-2 over-expressing cells to antimycin A; type: cell-based, murine; details: vs control cells
# [3] = test system: control mitochondria (TABX1A cells); test: Rhodamine 123 retention assay; parameters: species or system murine
# Protocol: Rh-123 is a cationic lipid-soluble fluorescent dye that accumulates in mitochondria in proportion to the mitochondrial membrane potential. Mitochondria were isolated from TABX2S cells (over-expressing Bcl-xL) and from control cells, prepared as described in Example 2. The isolated mitochondria were loaded with Rh-123 by incubating with 10 μM Rh-123 for 30 minutes, washed and resuspended in buffer. […] Less than 40% of Rh-123 was retained in antimycin A-treated TABX2S mitochondria, compared with greater than 80% retained in control mitochondria.
# In contrast, the control cells, which express BCl-xL at physiological levels, were resistant to BH3 peptide-induced membrane depolarization.
# TABX2S cells = test: Cellular respiration by oximetry; type: cell-based, murine; details: higher concentrations (above 1 μg/ml)
# Protocol: (§1) Briefly, TABX2S cells (over-expressing Bcl-xL) and control cells (TAMH.neo) were suspended in air-equilibrated complete medium at a density of 3 million cells per milliliter and placed in a thermostatted electrode chamber at 37° C.
# TAMH.neo control cells = test: Cellular respiration by oximetry; type: cell-based, murine; details: higher concentrations (above 1 μg/ml)
# Protocol: as §1
# [4] = Stability in solution at pH 7.4 (no S9); type: physicochemical; details: pH 7.4, absence of S9 proteins
# [5] = Binding to plasma proteins (ultrafiltration); type: in vitro ADME, mouse; details: mouse, plasma, presence of NaF+EDTA, read-out: Protein binding, Mouse
# Protocol: Solutions of 2-OMe antimycin A3 were diluted with plasma (dog or human) containing NaF+EDTA to final concentrations of 1.0 or 0.2 μg/ml. Controls were diluted with water to the same final concentrations. These preparations were incubated at 37° C. for 20 min, at which time portions were taken and placed in the sample reservoirs of Amicon Centrifree® ultrafiltration systems (Millipore Co., Bedford, Mass.). At 37° C., the filter systems were centrifuged until the reservoirs were dry. From each filtrate, portions were taken for analysis by HPLC. The amounts present were designated as “free drug” (F). The concentrations of the unfiltered solutions were also determined by triplicate analyses. This amount represented the “total drug” concentration (T). The percentage of 2-OMe antimycin A3 bound to plasma proteins was calculated by the following formula: % bound=((T−F)/T)×100
compound,measurement,setting,value
"CCCCCC[C@H]1C(=O)O[C@H](C)[C@H](NC(=O)c2cccc(NC=O)c2OC)C(=O)O[C@@H](C)[C@@H]1OC(=O)CC(C)C [2-OMeA1, 2-methoxy antimycin A1]",killing in combination,RPMI-8226 cells,Supra-additive killing
antimycin A,survival,[1],87%
same,sensitivity to antimycin A,[2],more sensitive
same,Rh123 dye leakage,[3]; BH3 peptide 3.5 μM,minimally affected
same,Rh-123 retained,[3]; five minutes after adding,greater than 80%
same,basal oxygen consumption maintained,TABX2S cells,about 20%
same,oxygen consumption,TAMH.neo control cells,almost completely inhibited
"CCCC[C@H]1C(=O)OC(C)[C@H](NC(=O)c2cccc(NC=O)c2OC)C(=O)O[C@@H](C)C1OC(=O)CC(C)C (stereo partly drawn) [2-OMeA3, Antimycin A3 methyl ether]",stability in solution,[4],not stable
same,"fraction unbound at 20 min, 1000 ng/ml",[5],< 0.01

# — patent publication US20050239873A1 (priority 1999, published 2005)
